Assay results taken from ChEMBL document CHEMBL5331096, “Pseudo-irreversible butyrylcholinesterase inhibitors: Structure-activity relationships, computational and crystallographic study of the N-dialkyl O-arylcarbamate warhead” (Eur J Med Chem, 2023).
Active and inactive are the calls of the source. The calls are words filed in the database; no cut-off is given here.

What was measured:
Acetylcholinesterase [1] = biological target: T1, Acetylcholinesterase (Homo sapiens, UniProt P22303); test: Inhibition of human AChE using acetylthiocholine iodide as substrate preincubated for 5 mins followed by substrate addition and measured for 2 mins by spectrophotometry based Ellman's method
T1 sequence (P22303 whole entry): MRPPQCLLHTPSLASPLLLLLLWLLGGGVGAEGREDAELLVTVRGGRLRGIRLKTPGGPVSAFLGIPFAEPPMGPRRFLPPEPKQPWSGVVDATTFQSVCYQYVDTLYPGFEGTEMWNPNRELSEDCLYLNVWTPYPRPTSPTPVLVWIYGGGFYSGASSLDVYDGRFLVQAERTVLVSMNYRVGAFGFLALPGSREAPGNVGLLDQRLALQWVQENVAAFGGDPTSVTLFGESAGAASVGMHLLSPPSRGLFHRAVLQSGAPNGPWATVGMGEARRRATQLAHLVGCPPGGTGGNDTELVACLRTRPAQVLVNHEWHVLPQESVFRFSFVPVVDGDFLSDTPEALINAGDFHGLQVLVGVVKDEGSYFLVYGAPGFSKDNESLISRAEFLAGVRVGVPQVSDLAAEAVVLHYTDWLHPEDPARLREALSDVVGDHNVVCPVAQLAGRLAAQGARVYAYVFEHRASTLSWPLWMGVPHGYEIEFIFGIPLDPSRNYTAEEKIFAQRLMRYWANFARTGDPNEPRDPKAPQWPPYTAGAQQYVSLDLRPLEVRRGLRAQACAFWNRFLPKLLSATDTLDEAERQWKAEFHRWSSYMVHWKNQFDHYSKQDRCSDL

Acetylcholinesterase [2] = biological target: T1, Acetylcholinesterase; test: Time dependent inhibition of human AChE using acetylthiocholine iodide as substrate preincubated for 5 mins followed by substrate addition and measured for 2 mins by spectrophotometry based Ellman's method; details: time 7.0 min
Cholinesterase [3] = biological target: T2, Cholinesterase (Homo sapiens, UniProt P06276); test: Time dependent inhibition of human BChE using butyrylthiocholine iodide as substrate preincubated for 5 mins followed by substrate addition and measured for 2 mins by spectrophotometry based Ellman's method; details: time 7.0 min
T2 sequence (P06276 whole entry): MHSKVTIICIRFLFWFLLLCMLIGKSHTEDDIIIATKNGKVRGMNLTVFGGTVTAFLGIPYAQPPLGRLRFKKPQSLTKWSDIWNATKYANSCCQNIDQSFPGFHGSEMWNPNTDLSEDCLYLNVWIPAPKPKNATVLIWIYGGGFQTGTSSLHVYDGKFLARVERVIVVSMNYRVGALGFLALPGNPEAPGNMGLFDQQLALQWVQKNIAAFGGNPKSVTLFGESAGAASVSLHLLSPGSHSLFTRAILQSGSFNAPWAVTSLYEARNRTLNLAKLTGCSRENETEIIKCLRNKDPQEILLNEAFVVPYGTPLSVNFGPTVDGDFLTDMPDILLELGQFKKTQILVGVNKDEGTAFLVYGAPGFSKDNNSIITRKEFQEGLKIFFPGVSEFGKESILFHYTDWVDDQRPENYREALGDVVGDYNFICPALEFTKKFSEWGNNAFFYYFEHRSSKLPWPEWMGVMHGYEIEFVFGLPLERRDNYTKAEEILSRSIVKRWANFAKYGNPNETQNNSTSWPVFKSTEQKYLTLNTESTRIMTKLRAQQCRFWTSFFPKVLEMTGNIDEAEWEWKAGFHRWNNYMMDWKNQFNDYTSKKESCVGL

Cholinesterase [4] = biological target: T2, Cholinesterase; test: Inhibition of human BChE using butyrylthiocholine iodide as substrate preincubated for 5 mins followed by substrate addition and measured for 2 mins by spectrophotometry based Ellman's method
Cholinesterase [5] = biological target: T2, Cholinesterase; test: Binding affinity to human BChE assessed as decarbamoylation rate constant at 25 degree C incubated for 1 hr by Ellman's method
Cholinesterase [6] = biological target: T2, Cholinesterase; test: Binding affinity to human BChE assessed as gibbs free energy change
Cholinesterase [7] = biological target: T2, Cholinesterase; test: Binding affinity to human BChE assessed as half life incubated for 1 hr by Ellman's method
Cholinesterase [8] = biological target: T2, Cholinesterase; test: Time dependent inhibition of human BChE using butyrylthiocholine iodide as substrate preincubated for 30 mins followed by substrate addition and measured for 2 mins by spectrophotometry based Ellman's method; details: time 32.0 min
Acetylcholinesterase [9] = biological target: T1, Acetylcholinesterase; test: Inhibition of human AChE assessed as residual activity using acetylthiocholine iodide as substrate at 100 uM preincubated for 30 mins followed by substrate addition and measured for 2 mins by spectrophotometry based Ellman's method relative to control; details: time 32.0 min
Cholinesterase [10] = biological target: T2, Cholinesterase; test: Inhibition of human BChE using butyrylthiocholine iodide as substrate preincubated for 30 mins followed by substrate addition and measured for 2 mins by spectrophotometry based Ellman's method
Acetylcholinesterase [11] = biological target: T1, Acetylcholinesterase; test: Time dependent inhibition of human AChE using acetylthiocholine iodide as substrate preincubated for 30 mins followed by substrate addition and measured for 2 mins by spectrophotometry based Ellman's method; details: time 32.0 min
Acetylcholinesterase [12] = biological target: T1, Acetylcholinesterase; test: Binding affinity to recombinant human AChE assessed as appearance of fluorescent bands at 10 uM incubated for 4 hrs by Western blot analysis
Acetylcholinesterase [13] = biological target: T1, Acetylcholinesterase; test: Binding affinity to recombinant human AChE assessed as appearance of fluorescent bands at 10 uM incubated for 4 hrs in presence of BW284c51 by Western blot analysis
Cholinesterase [14] = biological target: T2, Cholinesterase; test: Binding affinity to human BChE plasma assessed as appearance of fluorescent bands at 10 uM incubated for 30 mins in presence of ethopropazine by Western blot analysis; assay type: cell-free
Cholinesterase [15] = biological target: T2, Cholinesterase; test: Binding affinity to human BChE plasma assessed as appearance of fluorescent bands at 10 uM incubated for 30 mins by Western blot analysis; assay type: cell-free
Cholinesterase [16] = biological target: T2, Cholinesterase; test: Binding affinity to human BChE plasma assessed as appearance of fluorescent bands at 10 uM incubated for 30 mins in presence of isoOMPA by Western blot analysis; assay type: cell-free
Cholinesterase [17] = biological target: T2, Cholinesterase; test: Binding affinity to recombinant human BChE assessed as appearance of fluorescent bands at 10 uM incubated for 4 hrs by Western blot analysis
Cholinesterase [18] = biological target: T2, Cholinesterase; test: Binding affinity to human BChE plasma assessed as appearance of fluorescent bands at 10 uM incubated for 30 mins in presence of BW284c51 by Western blot analysis; assay type: cell-free
HepG2 = test: Cytotoxicity against human HepG2 cells assessed as inhibition of cell growth measured after 48 hrs by MTS assay; assay type: functional, cell-based; details: HepG2, 48 h
Cholinesterase [19] = biological target: T2, Cholinesterase; test: Binding affinity to human BChE assessed as pseudo-first order inhibition rate at 20 nM by Ellman's method
Cholinesterase [20] = biological target: T2, Cholinesterase; test: Binding affinity to human BChE assessed as pseudo-first order inhibition rate at 10 nM by Ellman's method
Cholinesterase [21] = biological target: T2, Cholinesterase; test: Binding affinity to human BChE assessed as inhibition constant
[22] = biological target: Cholinesterases; ACHE & BCHE (Homo sapiens) (UniProt P06276+P22303); test: Selectivity ratio of IC50 for human AChE to IC50 for human BChE; assay type: protein assay
Chain of Cholinesterases; ACHE & BCHE (Homo sapiens) (P06276 whole entry, looked up): as the sequence (P06276 whole entry) above
Chain of Cholinesterases; ACHE & BCHE (Homo sapiens) (P22303 whole entry, looked up): as the sequence (P22303 whole entry) above

Cholinesterase [23] = biological target: T2, Cholinesterase; test: Binding affinity to human BChE assessed as pseudo-first order inhibition rate at 50 nM by Ellman's method
Cholinesterase [24] = biological target: T2, Cholinesterase; test: Binding affinity to human BChE assessed as pseudo-first order inhibition rate at 5 nM by Ellman's method
SH-SY5Y = test: Cytotoxicity against human SH-SY5Y cells assessed as inhibition of cell growth measured after 48 hrs by MTS assay; assay type: functional, cell-based
Cholinesterase [25] = biological target: T2, Cholinesterase; test: Binding affinity to human BChE assessed as carbamoylation rate constant by Ellman's method

SMILES | IC50 (Acetylcholinesterase [1]) | inhibition (Acetylcholinesterase [2]) | inhibition (Cholinesterase [3]) | IC50 (Cholinesterase [4]) | other results
C#CCN(C)C(=O)Oc1ccc2c(CN(C)CCC3CCCCCC3)c[nH]c2c1 | 1460 nM | inactive | inactive | 10.2 nM | 
CN(CCC1CCCCCC1)Cc1c[nH]c2c(OC(=O)N(C)N(C)C)cccc12 | 5560 nM | Active | Active | 13.2 nM | 
CC(C)N(C(=O)Oc1cccc2c(CN(C)CCC3CCCCCC3)c[nH]c12)C(C)C | 4630 nM | inactive | inactive | 230 nM | 
CCN(CC)C(=O)Oc1cccc2c(CN(C)CCC3CCCCCC3)c[nH]c12 | 5590 nM | inactive | Active | 61 nM | K (Cholinesterase [5]): 0.002 h⁻¹; deltaG (Cholinesterase [6]): 25.9 kcal/mol; T1/2 (Cholinesterase [7]): 318 h
CN(CCC1CCCCCC1)Cc1c[nH]c2c(OC(=O)N3CCCCC3)cccc12 | 529 nM | Active |  | 5.28 nM | 
CC(C)N(C)C(=O)Oc1cccc2c(CN(C)CCC3CCCCCC3)c[nH]c12 | 2830 nM | Active | Active | 114 nM | 
C#CCN(C(=O)Oc1cccc2c(CN(C)CCC3CCCCCC3)c[nH]c12)C(C)C | 5350 nM | inactive | inactive | 80.5 nM | 
CN(CCC1CCCCCC1)Cc1c[nH]c2cc(OC(=O)N(C)C)ccc12 | 6720 nM | Active | Active | 45.6 nM | 
CCN(C)C(=O)Oc1cccc2cc[nH]c12 |  |  |  |  | inhibition (Cholinesterase [8]): Active; Activity (Acetylcholinesterase [9]): 56.2%; IC50 (Cholinesterase [10]): 1390 nM; inhibition (Acetylcholinesterase [11]): inactive
C#CCCCCCCCCCN(C)C(=O)Oc1cccc2c(CN(C)CCC3CCCCCC3)c[nH]c12 | 123 nM | Active | Active | 3.77 nM | Activity (Acetylcholinesterase [12]): Active; Activity (Acetylcholinesterase [13]): inactive; Activity (Cholinesterase [14]): inactive; Activity (Cholinesterase [15]): Active; Activity (Cholinesterase [16]): inactive; Activity (Cholinesterase [17]): Active; Activity (Cholinesterase [18]): inactive
CC(C)N(C(=O)Oc1cccc2cc[nH]c12)C(C)C |  |  |  |  | inhibition (Cholinesterase [8]): inactive; Activity (Acetylcholinesterase [9]): 66.5%; IC50 (Cholinesterase [10]): 12800 nM; inhibition (Acetylcholinesterase [11]): inactive
CN(C)C(=O)Oc1cccc2cc[nH]c12 |  |  |  |  | inhibition (Cholinesterase [8]): Active; Activity (Acetylcholinesterase [9]): 2.4%; IC50 (Cholinesterase [10]): 1660 nM; inhibition (Acetylcholinesterase [11]): Active
C#CCN(C)C(=O)Oc1cccc2c(CN(C)CCC3CCCCCC3)c[nH]c12 | 340 nM | Active |  | 7.75 nM | K (Cholinesterase [5]): 0.014 h⁻¹; deltaG (Cholinesterase [6]): 24.8 kcal/mol; T1/2 (Cholinesterase [7]): 49 h
O=C(Oc1cccc2cc[nH]c12)N1CCOCC1 |  |  |  |  | inhibition (Cholinesterase [8]): inactive; Activity (Acetylcholinesterase [9]): 19.3%; IC50 (Cholinesterase [10]): 2390 nM
CN(CCC1CCCCCC1)Cc1c[nH]c2c(OC(=O)N(C)C(C)(C)C)cccc12 | 10000 nM | inactive | inactive | 147 nM | 
C#CCN(CC)C(=O)Oc1cccc2c(CN(C)CCC3CCCCCC3)c[nH]c12 | 7530 nM | Active | Active | 21.9 nM | 
CN(CCC1CCCCCC1)Cc1c[nH]c2c(OC(=O)N3CCOCC3)cccc12 | 3580 nM | Active |  | 11.4 nM | 
CCN(C)C(=O)Oc1cccc2c(CN(C)CCC3CCCCCC3)c[nH]c12 | 6820 nM | Active | Active | 10.4 nM | 
CON(C)C(=O)Oc1cccc2c(CN(C)CCC3CCCCCC3)c[nH]c12 | 1100 nM | inactive |  | 158 nM | 
CN(CCC1CCCCCC1)Cc1c[nH]c2c(O)cccc12 | 11600 nM |  |  | 373 nM | 
C#CCCCN(C)C(=O)Oc1cccc2c(CN(C)CCC3CCCCCC3)c[nH]c12 | 1080 nM | Active | Active | 12.3 nM | K (Cholinesterase [5]): 0.015 h⁻¹; deltaG (Cholinesterase [6]): 24.8 kcal/mol; T1/2 (Cholinesterase [7]): 46.5 h
CC(C)N(C(=O)Oc1ccc2c(CN(C)CCC3CCCCCC3)c[nH]c2c1)C(C)C | 337 nM | inactive | inactive | 86.2 nM | 
CN(CCC1CCCCCC1)Cc1c[nH]c2c(OC(=O)N(C)Cc3ccccc3)cccc12 | 531 nM | Active | Active | 11.6 nM | K (Cholinesterase [5]): 0.007 h⁻¹; deltaG (Cholinesterase [6]): 25.2 kcal/mol; T1/2 (Cholinesterase [7]): 92.2 h
CN(CCC1CCCCCC1)Cc1c[nH]c2c(OC(=O)N(C)C)cccc12 | 559 nM | Active | Active | 1.76 nM | IC50 (HepG2): 7100 nM; Kobs (Cholinesterase [19]): 1.85 min⁻¹; Kobs (Cholinesterase [20]): 0.677 min⁻¹; Ki (Cholinesterase [21]): 1.05 nM; Ratio IC50 [22]: 300; K (Cholinesterase [5]): 0.053 h⁻¹; deltaG (Cholinesterase [6]): 24 kcal/mol; Kobs (Cholinesterase [23]): 3.75 min⁻¹; Kobs (Cholinesterase [24]): 0.447 min⁻¹; T1/2 (Cholinesterase [7]): 13 h; IC50 (SH-SY5Y): 5800 nM; K (Cholinesterase [25]): 0.177 M⁻¹ s⁻¹
C#CCN(CC#C)C(=O)Oc1cccc2c(CN(C)CCC3CCCCCC3)c[nH]c12 | 464 nM | Active |  | 32.8 nM | K (Cholinesterase [5]): 0.062 h⁻¹; deltaG (Cholinesterase [6]): 24 kcal/mol; T1/2 (Cholinesterase [7]): 11.2 h
